The values that follow come from patent publication US20090036418A1, “Pharmaceutical composition for treatment of cancer containing pyridylpyridazine or transition metal complex thereof as active ingredient” (priority 2005, published 2009).

This assay has as its system XF-498 (human brain cancer). The experiment in a line: SRB assay, XF-498 cancer cell line. The assay is classed as cell-based. As to conditions: brain cancer cell line of Test Example 1, SRB assay. How it is done: The pyridylpyridazine compounds prepared in Preparation Examples 1 to 5 and transition metal complexes thereof were evaluated for the anticancer activities thereof. As cancer cell lines used in the test, A549 (human lung cancer), SK-MEL-2 (human skin cancer), HCT-15 (human colon cancer), SK-OV-3 (human […]) and XF-498 (human brain cancer) among 60 kinds of cancer cell lines[Ross, D. T. et al., Systematic variation in gene expression patterns I human cancer cell lines. Nature genetics, 24, 227-235 (2000)], which are used for the search of anticancer activity in the US National Cancer Institute, were obtained from the Bioorganic Research Division, the Korea Research Institute of Chemical Technology. The anticancer activities of the cell lines were evaluated by measuring ED50 values according to the sulforhodamine B (SRB) assay described in the literature[Choi, S. et al., Cytotoxicity of trichlorothecenes to human solid tumor cells in vitro. Arch. Pharm. Res. 19, 6-11 (1996)]. […]
More specifically, the SRB assay was performed in the following manner. […] After completion of the culture, each well was well washed, treated with 150 μl (10 mM) of unbuffer ED Tris solution to dissolve out the SRB dye, and then measured for absorbance at 520 nm using a reader for 96-well plates. […]

Regarding `c1ccc(-c2ccc(-c3ccccn3)nn2)nc1` [Compound of Preparation Example 1, 3,6-bis(2′-pyridyl)pyridazine], the “anticancer activity against the brain cancer cell line (in words)” value is “high anticancer activity”. In the case of “[3,6-bis(6′-methyl-2′-pyridyl)pyridazine]zinc(II) chloride [Compound of Preparation Example 4]”, the “anticancer activity against the brain cancer cell line (in words)” value is reported as “excellent anticancer activity”.
